Molecular target: α-glucosidase
Assay: α-glucosidase inhibition assay (PNPG method)
Format: biochemical, saccharomyces cerevisiae
Conditions: for IC50: absorbance at 405 nm, 37 °C, n = 3, read-out: α-glucosidase inhibitory activity IC50; for α-glycosidase inhibitory activity (in words): compared with positive control acarbose
Description: Altogether, dimethyl sulfoxide (DMSO; Beijing Mr. Lai Treasure Company, Beijing, China); phosphate buffer solution (PBS; HyClone); centrifuge tubes, 96 cell culture plates, and other consumables (NEST Biotechnology Co. Ltd., Beijing, China); and α-glucosidase (Sigma Company, St. Louis, MO, USA) from saccharomyces cerevisiae were obtained for this study. […] The absorbance was read using a microplate reader (Varioskan LUX, Thermo, Waltham, MA, USA) at 405 nm. The results were obtained for at least three independent experiments. The inhibitory activity of α-glucosidase was determined by the PNPG method. […] Then, 20 μL of PNPG (2.5 mmol/L) was added, mixed by shock, and incubated in a 37 °C constant-temperature incubator for 15 min. Then, 80 μL of Na2CO3 […] solution was added to stop the reaction and the absorbance was measured by a microplate reader at 405 nm. […] Inhibition rate = [(OD negative − OD blank) − (OD sample − OD background)]/(OD negative − OD blank) × 100%.

SMILES	IC50 [nM]	α-glycosidase inhibitory activity (in words)
CC1=CC[C@]2(C)CC[C@]3(C)C(CCC4[C@@]5(C)CCC(=O)C(C)(C)C5CC[C@]43C)C2[C@H]1C (some centres unmarked) [Compound 13, ψ-taraxasterone]	260 ± 38.3	
C=C(C)[C@@H]1CC[C@]2(CO)CC[C@]3(C)C(CCC4[C@@]5(C)CC[C@H](O)C(C)(C)C5CC[C@]43C)C12 (some centres unmarked) [Compound 15, birch ester alcohol]	90 ± 4.5	best activity
CC1(C)CC[C@]2(CO)CC[C@]3(C)C(=CCC4[C@@]5(C)C(=O)C[C@@H](O)C(C)(C)C5CC[C@]43C)C2C1 (stereo partly drawn) [Compound 1, 3α, 28-dihydroxy-12-oleanene-l-one]	270 ± 49.9	more significant activity than the positive control
CC1=CCC2(C)CCC3(C)C(CCC4C5(C)C(O)CC(O)C(C)(C)C5CCC43C)C2C1C (stereo not drawn) [Compound 7, 20-taraxastene-1β, 3β -diol]	560 ± 33.1	

Continued, in another order:

IC50 [nM]	SMILES	α-glycosidase inhibitory activity (in words)
230 ± 13.5	CC1=CCC2(C)CCC3(C)C(CCC4C5(C)CCC(O)C(C)(C)C5C(O)CC43C)C2C1C (stereo not drawn) [Compound 8, 6β-pseudotaraxasterol]	more significant activity than the positive control
110 ± 22.2	CC1(C)CC[C@]2(C)CC[C@]3(C)C(=CC=C4[C@]5(C)C(CC[C@]43C)C(C)(C)[C@@H](O)C[C@@H]5O)C2C1 (some centres unmarked) [Compound 3, juglangenin A]	
230 ± 30.7	CC1CCC2(C)CCC3(C)C4CCC5C(C)(C)C(O)CCC5(C)C4(C)CCC3(O)C2C1C (stereo not drawn) [Compound 9, ursan-3β, 13β-diol]	more significant activity than the positive control
